# “Also recorded” adds a separate entry of the source. Counter-ions that a name gives are not always drawn. Like-named read-outs stand apart in the source and are kept apart here.
# Legend:
# SARS-CoV-2 = assay type: cell-based
# uninfected cultures = conditions: 10-1000 nM
# HO-1 = HO-1 protein levels in Calu3 cells (flow cytometry); assay type: cell-based, human
# Nrf2 = Nrf2 protein levels in Calu3 cells (flow cytometry); assay type: cell-based, human; conditions: infected and uninfected Calu3, pretreatment, data not shown
# Keap1 = Keap1 protein levels in Calu3 cells (flow cytometry); assay type: cell-based, human; conditions: infected and uninfected Calu3, pretreatment, data not shown
# IL-6 = assay type: cell-based, human
# [1] = Calu3, 0.25 μM pretreatment, data not shown
compound,measurement,setting,value
CCCCCCCCCC[P+](c1ccccc1)(c1ccccc1)c1ccccc1.[Br-] [DTPP],cytotoxicity (XTT assay),"Calu3 cells; uninfected cells, 1000 nM",not cytotoxic
same,antiviral activity (TCID50 assay),"SARS-CoV-2; Calu3, 1000 nM",Antiviral activity was observed
CC1(C)CC(NC(=O)C[P+](c2ccccc2)(c2ccccc2)c2ccccc2)CC(C)(C)N1[O] [Mito-TEMPO],cytotoxicity (XTT assay),uninfected cultures,no observed cytotoxicity
brusatol,HO-1 protein levels,HO-1,increased the HO-1 protein levels
same,impact on the effect of Mito-MES on HO-1 protein levels,"HO-1; Calu3, 0.25 μM, data not shown",did not have an impact on the effect of Mito-MES on HO-1 protein levels
same,protein levels of Nrf2,Nrf2,reduced protein levels of Nrf2
same,protein levels of Keap,Keap1,increased protein levels of Keap
same,effect on the antiviral effect of DMF and Mito-MES (TCID50),"SARS-CoV-2; Calu3, 0.25 μM pretreatment for 24 h",inhibited the antiviral effect of both DMF alone and Mito-MES
same,SARS-CoV-2 infection (flow cytometry),SARS-CoV-2; [1],directly enhanced SARS-CoV-2 infection
same,effect on the reduction in percent infected cells induced by Mito-MES and DMF,SARS-CoV-2; [1],attenuated the reduction in the percent of infected Calu3 cells
same,release of progeny SARS-CoV-2 virus particles to the cell supernatant (TCID50),"SARS-CoV-2; Calu3, pretreatment with 0.25 μM",significantly increased subsequent release of progeny SARS-CoV-2 virus particles
same,effect on the anti-inflammatory effect of Mito-MES (IL-6 ELISA),"IL-6; Calu3, 0.25 μM",inhibited the anti-inflammatory effect of Mito-MES
same,release of IL-6 to the cell supernatant from infected cells (ELISA),"IL-6; Calu3, pretreatment 0.25 μM",significantly increased subsequent release of IL-6
"COC(=O)/C=C/C(=O)OC [DMF, dimethyl fumarate]",HO-1 protein levels,"HO-1; Calu3, pretreatment 10 μM, data not shown",increased HO-1 protein levels
same,cytotoxicity (XTT assay),"Calu3 cells; uninfected Calu3, 100 μM, 24 h",cytotoxic
same,protein levels of Nrf2,Nrf2,did not impact protein levels of Nrf2
same,protein levels of Keap,Keap1,reduced protein levels of Keap
same,viral titers / antiviral effect vs vehicle control (TCID50),"SARS-CoV-2; Calu3, 10 μM DMF alone, FIG. 11-a",did not produce an observable antiviral effect; also recorded: did not reduce viral titers
same,release of progeny SARS-CoV-2 virus particles to the cell supernatant (TCID50 assay),"SARS-CoV-2; Calu3, pretreatment with 10 μM DMF for 24 h, FIG. 5-a",reduction in subsequent release of progeny SARS-CoV-2 virus particles
same,release of IL-6 from infected cells (ELISA),"IL-6; Calu3, pretreatment 10 μM for 24 h",reduction in subsequent release of IL-6

# Reference: patent US20250090557A1 (priority 2020, published 2025)
